In test [1] the target is T1, Gonadotropin-releasing hormone receptor (Rattus norvegicus, UniProt P30969).
T1 sequence (P30969 whole entry): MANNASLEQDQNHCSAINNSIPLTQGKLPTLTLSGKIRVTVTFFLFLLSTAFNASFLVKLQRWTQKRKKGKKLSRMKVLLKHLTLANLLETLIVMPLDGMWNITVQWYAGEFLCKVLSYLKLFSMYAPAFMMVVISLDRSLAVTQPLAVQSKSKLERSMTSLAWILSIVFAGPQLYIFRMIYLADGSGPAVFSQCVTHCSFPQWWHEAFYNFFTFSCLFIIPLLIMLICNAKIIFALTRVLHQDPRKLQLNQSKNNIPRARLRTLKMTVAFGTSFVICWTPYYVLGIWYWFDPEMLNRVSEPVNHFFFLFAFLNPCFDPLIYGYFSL
The test is described as follows: Affinity for rat gonadotrophin releasing hormone (GnRH) receptor using HEK293 cells transfected with rat Gonadotropin-releasing hormone receptor. It is filed as cell-based. As to conditions: hek293.

The species entered for test [2] is Rattus norvegicus. The test is described as follows: Antiovulatory potency at 1 ug/rat expressed as rats ovulating by total no. of rats (4/4). It is filed as functional.
Test [3] is filed under the species Rattus norvegicus. The test is described as follows: Antiovulatory potency at 2.5 ug/rat expressed as rats ovulating by total no. of rats (3/5). It is filed as functional.
The species entered for test [4] is Rattus norvegicus. The test is described as follows: Antiovulatory potency at 5 ug/rat expressed as rats ovulating by total no. of rats (3/5). It is filed as functional.
The species entered for test [5] is Rattus norvegicus. The test is described as follows: Antiovulatory potency at 5 ug/rat expressed as rats ovulating by total no. of rats (1/7). It is filed as functional.
The species entered for test [6] is Rattus norvegicus. The test is described as follows: Antiovulatory potency at 2.5 ug/rat expressed as rats ovulating by total no. of rats (2/8). It is filed as functional.
The species entered for test [7] is Rattus norvegicus. The test is described as follows: Antiovulatory potency at 10 ug/rat expressed as rats ovulating by total no. of rats (0/6). It is filed as functional.
For test [8], the species on record is Rattus norvegicus. The test is described as follows: Antiovulatory potency at 100 ug/rat expressed as rats ovulating by total no. of rats (0/4). It is filed as functional.
The species named for test [9] is Rattus norvegicus. The test is described as follows: Antiovulatory potency at 250 ug/rat expressed as rats ovulating by total no. of rats (5/5). It is filed as functional.
The species entered for test [10] is Rattus norvegicus. The test is described as follows: Antiovulatory potency at 500 ug/rat expressed as rats ovulating by total no. of rats (5/7). It is filed as functional.
The species named for test [11] is Rattus norvegicus. The test is described as follows: Antiovulatory potency at 100 ug/rat expressed as rats ovulating by total no. of rats (5/5). It is filed as functional.
The species named for test [12] is Rattus norvegicus. The test is described as follows: Antiovulatory potency at 250 ug/rat expressed as rats ovulating by total no. of rats (0/5). It is filed as functional.
For test [13], the species on record is Rattus norvegicus. The test is described as follows: Antiovulatory potency at 10 ug/rat expressed as rats ovulating by total no. of rats (5/5). It is filed as functional.
Test [14] is filed under the species Rattus norvegicus. The test is described as follows: Antiovulatory potency at 25 ug/rat expressed as rats ovulating by total no. of rats (3/7). It is filed as functional.
For test [15], the species on record is Rattus norvegicus. The test is described as follows: Antiovulatory potency at 50 ug/rat expressed as rats ovulating by total no. of rats (0/5). It is filed as functional.
For test [16], the species on record is Rattus norvegicus. The test is described as follows: Antiovulatory potency at 5 ug/rat expressed as rats ovulating by total no. of rats (0/5). It is filed as functional.
Test [17] is filed under the species Rattus norvegicus. The test is described as follows: Antiovulatory potency at 1 ug/rat expressed as rats ovulating by total no. of rats (5/7). It is filed as functional.
Test [18] is filed under the species Rattus norvegicus. The test is described as follows: Antiovulatory potency at 2.5 ug/rat expressed as rats ovulating by total no. of rats (4/16). It is filed as functional.
The species named for test [19] is Rattus norvegicus. The test is described as follows: Antiovulatory potency at 250 ug/rat expressed as rats ovulating by total no. of rats (3/3). It is filed as functional.

Each structure is given as a SMILES string.

Turning to `CC(=O)N[C@@H]1CC(=O)NCC(=O)NCC[C@H]2NC(=O)[C@@H](CC(=O)NC[C@H](C(N)=O)NC(=O)[C@H]3CCCN3C(=O)[C@H](CCCN=C(N)N)NC(=O)[C@@H](CC(C)C)NC(=O)[C@@H](Cc3ccc4ccccc4c3)NC2=O)NC(=O)[C@@H](Cc2cccnc2)NC(=O)[C@H](Cc2ccc(Cl)cc2)NC1=O`, the inhibitory constant (Ki) in [1] stood at 0.12 nM. Further, the Ovulating rats in test [2] was determined as 4; in test [3] it was 3; in test [4], 3.
For the compound `CC(=O)N[C@@H]1CCC(=O)NCC(=O)NCC[C@H]2NC(=O)[C@@H](CC(=O)NC[C@H](C(N)=O)NC(=O)[C@H]3CCCN3C(=O)[C@H](CCCN=C(N)N)NC(=O)[C@@H](CC(C)C)NC(=O)[C@@H](Cc3ccc4ccccc4c3)NC2=O)NC(=O)[C@@H](Cc2c[nH]c3ccccc23)NC(=O)[C@H](Cc2ccc(Cl)cc2)NC1=O`, the Ovulating rats in test [5] is given as 1; in test [6], 2; in test [7], 0.
In the case of `CC(=O)N[C@H](Cc1ccc2ccccc2c1)C(=O)N[C@H](Cc1ccc(Cl)cc1)C(=O)N[C@@H]1CC(=O)NCCCC[C@@H]2NC(=O)[C@H](CC(C)C)NC(=O)[C@@H](CCCN=C(N)N)NC(=O)[C@H](Cc3ccc(O)cc3)NC(=O)[C@H](CC(=O)NC[C@@H](C(N)=O)NC(=O)[C@@H]3CCCN3C2=O)NC1=O`, the Ovulating rats in test [8] worked out at 0; in [9], 5.
Take `CC(=O)N[C@H](Cc1ccc2ccccc2c1)C(=O)N[C@H]1CSSC[C@@H]2NC(=O)[C@H](Cc3ccc(O)cc3)NC(=O)[C@H](CC(=O)NC[C@@H](C(N)=O)NC(=O)[C@@H]3CCCN3C(=O)[C@H](CCCN=C(N)N)NC(=O)[C@H](CC(C)C)NC2=O)NC(=O)[C@@H](Cc2c[nH]c3ccccc23)NC1=O`: the affinity in [1], expressed as Ki, was 13 nM. This compound also gave an Ovulating rats in test [10] of 5.
With `CC(=O)N[C@H](Cc1ccc2ccccc2c1)C(=O)N[C@H](Cc1ccc(Cl)cc1)C(=O)N[C@@H]1CC(=O)NCCC[C@@H](C(=O)N2CCC[C@H]2C(=O)N[C@H](C)C(N)=O)NC(=O)[C@H](CC(C)C)NC(=O)[C@@H](Cc2ccc3ccccc3c2)NC(=O)[C@H](CCCN=C(N)N)NC(=O)[C@H](C)NC1=O`, the Ovulating rats came to 5 in test [11] and 0 in test [12].
Turning to `CC(=O)N[C@H](Cc1ccc2ccccc2c1)C(=O)N[C@H](Cc1ccc(Cl)cc1)C(=O)N[C@@H]1CC(=O)NCCCC[C@@H](C(=O)N2CCC[C@H]2C(=O)N[C@H](C)C(N)=O)NC(=O)[C@H](CC(C)C)NC(=O)[C@@H](Cc2ccc3ccccc3c2)NC(=O)[C@H](CCCN=C(N)N)NC(=O)[C@H](C)NC1=O`, the Ovulating rats in test [13] came out at 5; in test [14] it was 3; in [15], 0.
`CC(=O)N[C@H]1CC(=O)NCC(=O)NCC[C@@H]2NC(=O)[C@H](CC(=O)NC[C@@H](C(N)=O)NC(=O)[C@@H]3CCCN3C(=O)[C@H](CCCN=C(N)N)NC(=O)[C@H](CC(C)C)NC(=O)[C@@H](Cc3ccc4ccccc4c3)NC2=O)NC(=O)[C@@H](Cc2c[nH]c3ccccc23)NC(=O)[C@@H](Cc2ccc(Cl)cc2)NC1=O`: the Ovulating rats in test [16] worked out at 0; in test [17], 5; in test [18], 4.
Compound `CC(=O)N[C@@H]1CC(=O)NCC(=O)NCC[C@H]2NC(=O)[C@@H](CC(=O)NC[C@H](C(N)=O)NC(=O)[C@H]3CCCN3C(=O)[C@H](CCCN=C(N)N)NC(=O)[C@@H](CC(C)C)NC(=O)[C@@H](Cc3cccnc3)NC2=O)NC(=O)[C@@H](Cc2cccnc2)NC(=O)[C@H](Cc2ccc(Cl)cc2)NC1=O` registered a Ki in [1] of 1.6 nM. This compound gave an Ovulating rats in [19] of 3.

In general, Ki refers to a measure of affinity in units of concentration, obtained from inhibition or displacement. A low value points to tighter binding.

The record behind these values is ChEMBL document CHEMBL1132959, “Design of potent dicyclic (1-5/4-10) gonadotropin releasing hormone (GnRH) antagonists” (J Med Chem, 2000).
